# Entries after “also recorded” stand apart in the source; their conditions may differ.
# What was measured:
# [1] = system: Abeta 25-35 intoxicated mice; assay: Spontaneous alternation performance, Y-maze test (spatial working memory) after icv Abeta 25-35; format: in vivo, Swiss mice; details: tested day 7
# Description: (§1) Male Swiss mice are used throughout the study. Animals are housed in plastic cages, with free access to laboratory chow and water, except during behavioral experiments, and kept in a regulated environment, under a 12 h light/dark cycle (light on at 8:00 a.m.). Experiments are carried out in a soundproof and air-regulated experimental room to which mice have been habituated at least 30 min before each experiment.
# (§2) Drug(s) is/are administered daily by gavage (per os). The Abeta 25-35 peptide and scrambled Abeta 25-35 peptide (control) have been dissolved in sterile bidistilled water, and stored at −20° C. until use. The Abeta peptides are then administered intracerebroventricularly (icy). In brief, each mouse is anesthetized lightly with ether, and a gauge stainless-steel needle is inserted unilaterally 1 mm to the right of the midline point equidistant from each eye, at an equal distance between the eyes and the ears and perpendicular to the plane of the skull. Peptides or vehicle are delivered gradually within approximately 3 s. […] The administration site is checked by injecting Indian ink in preliminary experiments. Neither insertion of the needle nor injection of the vehicle has a significant influence on survival, behavioral responses or cognitive functions.
# On day −1, i.e., 24 h before the Abeta 25-35 peptide injection, drugs, candidate combinations, baclofen acamprosate mix, or the vehicle solution are administered per os by gavage twice daily (at 8:00 a.m. and 6:00 p.m.), and caprylic triglyceride is administered per os by gavage once daily (at 8:00 a.m.).
# On day 0 (at 10:00 a.m.), mice are injected icy with Abeta 25-35 peptide or scrambled Abeta 25-35 peptide (control) in a final volume of 3 μL (3 mM).
# Between day 0 and day 7, drugs, drug combinations or the vehicle solution are administered per os by gavage once or twice daily (at 8:00 a.m. for caprylic triglyceride or at 8:00 a.m. and 6:00 p.m. for baclofen and acamprosate). As a positive control, one animal group receives donepezil (reference compound—1 mg/kg/day) per os by gavage in a single injection (at 8:00 a.m.). Drugs are solubilized in water and freshly prepared just before each gavage administration.
# On day 7, all animals are tested for spontaneous alternation performance in the Y-maze test, an index of spatial working memory (short-term memory).
# On day 7, all animals are tested for spontaneous alternation performance in the Y-maze, an index of spatial working memory. The Y-maze is made of grey polyvinylchloride. Each arm is 40 cm long, 13 cm high, 3 cm wide at the bottom, 10 cm wide at the top, and converges at an equal angle. Each mouse is placed at the end of one arm and allowed to move freely through the maze during an 8 min session. The series of arm entries, including possible returns into the same arm, are checked visually. An alternation is defined as entries into all three arms on consecutive occasions. The number of maximum alternations is therefore the total number of arm entries minus two and the percentage of alternation is calculated as (actual alternations/maximum alternations)×100. Parameters include the percentage of alternation (memory index) and total number of arm entries (exploration index). Animals that show an extreme behavior (alternation percentage <25% or >85% or number of arm entries <10) are discarded. Usually, this accounts for 0-5% of the animals. […]
# [2] = system: Abeta 25-35 intoxicated mice; assay: Step-through passive avoidance test (contextual long-term memory) after icv Abeta 25-35; format: in vivo, Swiss mice
# Description: as §1
# as §2, with “functions. […]” for “functions.”
# On days 8 and 9, the contextual long-term memory of the animals is assessed using the step-through type passive avoidance procedure.
# The apparatus is a two-compartment (15×20×15 cm high) box with one compartment being illuminated with white polyvinylchloride walls and the other compartment darkened with black polyvinylchloride walls and a grid floor. […] The step-through latency, that is, the latency spent to enter the darkened compartment, and the number of vocalizations is recorded. […] After 5 s the door is raised, and the step-through latency and the escape latency, i.e., the time spent to return into the white compartment, are recorded up to 300 s.
compound,measurement,setting,value
"CCCCCCCC(=O)OCC(COC(=O)CCCCCCC)OC(=O)CCCCCCC [C8 MCT, caprylic triglyceride]",effect on working memory (percentage of alternation) compared to Abeta 25-35 intoxicated animals,"[1]; caprylic triglyceride alone, 0.555, 1.66 and 5 g/kg/d per os once daily, FIG. 1-A",does not improve working memory
same,effect on working memory (percentage of alternation) compared to Abeta 25-35 intoxicated animals,"[1]; caprylic triglyceride alone, 0.555, 1.66 and 5 g/kg/d per os once daily, FIG. 1-A, listed as caprylic triglyceride",No significant effect
same,effect on memory defects (step-through latency) compared to Abeta 25-35 intoxicated animals,"[2]; C8 MCT alone, 0.555, 1.66 and 5 g/kg/d per os, FIG. 2-A",does not provide any statistically significant effect
CC(=O)NCCCS(=O)(=O)O [acamprosate],effect on working memory (percentage of alternation) compared to Abeta 25-35 intoxicated animals,"[1]; acamprosate alone, 32 μg/kg/bid per os, FIG. 1-B",No significant effect; also recorded: does not improve working memory
same,effect on memory defects (step-through latency) compared to Abeta 25-35 intoxicated animals,"[2]; acamprosate monotherapy, 32 μg/kg/bid per os, FIG. 2-B",does not provide any improvement
"NCC(CC(=O)O)c1ccc(Cl)cc1 (centres unmarked) [Baclofen, baclofen]",effect on working memory (percentage of alternation) compared to Abeta 25-35 intoxicated animals,"[1]; baclofen alone, 480 μg/kg/bid per os, FIG. 1-B",does not improve working memory
same,effect on working memory (percentage of alternation) compared to Abeta 25-35 intoxicated animals,"[1]; baclofen alone, 480 μg/kg/bid per os, FIG. 1-B, listed as baclofen",No significant effect
same,effect on memory defects (step-through latency) compared to Abeta 25-35 intoxicated animals,"[2]; baclofen monotherapy, 480 μg/kg/bid per os, FIG. 2-B",does not provide any improvement

# Source: patent publication US10905672B2, “Combination of baclofen, acamprosate and medium chain triglycerides for the treatment of neurological disorders” (PHARNEXT, priority 2014, dated 2021)
